# What was measured:
# E. coli ATCC 25922 = assay: MIC, selected panel of Gram-positive and Gram-negative strains (Example 5); format: cell-based, Escherichia coli; settings: Escherichia coli, ATCC25922; read-out: MIC E. coli ATCC 25922
# A. baumannii ATCC 19606 = assay: as above; format: cell-based, Acinetobacter baumannii; settings: Acinetobacter baumannii, ATCC19606; read-out: MIC A. baumannii ATCC 19606
# [1] = test system: GN10 Pseudomonas aeruginosa; assay: Pre-chequerboard MIC, broth microdilution (Example 6); format: cell-based; settings: ATCC 27853 / GN10, ATCC 27853, antibiotic susceptible
# Description: (§1) A chequerboard technique was used to identify possible synergistic or antagonistic interactions between the 4-oxoquinolizines compounds, levofloxacin and polymyxin B. Levofloxacin was included as a control. […] Final dilutions were made in Mueller-Hinton broth, the specific test medium used for MIC determinations according to CLSI guidelines (CLSI. Methods for Dilution Antimicrobial Susceptibility Tests for Bacteria That Grow Aerobically; Approved Standard-Eighth Edition (2009). CLSI Document M07-A8. CLSI, Wayne, Pa. 19087-1898, USA.). The test medium used was a cation-adjusted Mueller-Hinton Broth II (Becton Dickinson UK Ltd., Oxford Science Park, Oxford, UK, OX4 4DQ).
# (§2) The compounds 2, 33 and 35, as well as levofloxacin were tested in combination with polymyxin B on the following isolates: GN31 Acinetobacter baumannii—antibiotic susceptible clinical isolate, GN52 Acinetobacter baumannii—levofloxacin resistant clinical isolate, GN56 Acinetobacter baumannii—levofloxacin resistant clinical isolate, GN48 Klebsiella pneumoniae—NCTC 13443—NDM-1-metallo-R-lactamase and GN10 Pseudomonas aeruginosa—ATCC 27853—antibiotic susceptible reference isolate. All isolates are from the collection maintained at Quotient Bioresearch Ltd., Cambridge, UK.
# (§3) The MIC values for the compounds and polymyxin B and levofloxacin were determined by broth microdilution following CLSI guidelines, and the MICs of agents in combination were determined as described by Pillai et.al (Pillai S K, Moellering R C Jr, Eliopoulis G M; Antimicrobial Combinations in Antibiotics in Laboratory Medicine 5th Edition (V. Lorian Ed) (2005) p 365-440). Initial MIC results were used to determine the microtiter plate patterns for the chequerboards. A suitable doubling dilution concentration range was selected such that the combination antibiotic range was at least two concentrations above and four concentrations below the MIC for each isolate. A fixed range of 0.008 to 8 mg/L was tested for polymyxin B except in the case of A. baumannii GN31 where a range of 0.004 to 4 mg/L was tested when in combination with the compounds 2, 33 and 35 as well as levofloxacin.
# [2] = test system: GN31 Acinetobacter baumannii; assay: as above; format: cell-based; settings: antibiotic susceptible clinical isolate
# Description: as §1, §2, §3
# [3] = test system: GN48 Klebsiella pneumoniae; assay: as above; format: cell-based; settings: GN48 / NCTC 13443, NCTC 13443, NDM-1
# Description: as §1, §2, §3
# [4] = test system: GN56 Acinetobacter baumannii; assay: as above; format: cell-based; settings: levofloxacin resistant clinical isolate
# Description: as §1, §2, §3
# [5] = test system: GN10 Pseudomonas aeruginosa; assay: Chequerboard synergy with polymyxin B (FICI); format: cell-based; settings: combination with polymyxin B
# Description: as §1, §2, §3
# (§4) From the raw data, fractional inhibitory concentration indices (FICI) were determined for the compounds of the invention and levofloxacin together with polymyxin B for each isolate as follows: FICI=FICX+FICY Where,
# (§5) FICX=concentration of the combination antibiotic in a particular row÷MIC of the combination drug alone
# (§6) FICY=MIC of polymyxin B in combination÷MIC of the polymyxin B alone
# (§7) Additionally isobolograms were created to represent the same data visually. Here, the MIC of polymyxin B was plotted against every concentration of the combination antibiotic up to the MIC.
# E. faecium 19434 = assay: MIC, standard panel of Gram-positive and Gram-negative bacteria (CLSI); format: cell-based, Enterococcus faecium; settings: Enterococcus faecium, 19434; CAMHB; read-out: MIC E. faecium 19434
# S. aureus ATCC 25923 = assay: MIC, selected panel of Gram-positive and Gram-negative strains (Example 5); format: cell-based; settings: Staphylococcus aureus, ATCC25923; read-out: MIC S. aureus ATCC 25923
# E. faecalis 29212 = assay: MIC, standard panel of Gram-positive and Gram-negative bacteria (CLSI); format: cell-based, Enterococcus faecalis; settings: Enterococcus faecalis, 29212; CAMHB; read-out: MIC E. faecalis 29212
# [6] = test system: GN52 Acinetobacter baumannii; assay: Pre-chequerboard MIC, broth microdilution (Example 6); format: cell-based; settings: levofloxacin resistant clinical isolate
# Description: as §1, §2, §3
# [7] = test system: GN48 Klebsiella pneumoniae; assay: Chequerboard synergy with polymyxin B (FICI); format: cell-based; settings: combination with polymyxin B
# Description: as §1, §2, §3, §4, §5, §6, §7
# E. cloacae 13047 = assay: MIC, standard panel of Gram-positive and Gram-negative bacteria (CLSI); format: cell-based, Enterobacter cloacae; settings: Enterobacter cloacae, 13047; CAMHB; read-out: MIC E. cloacae 13047
# B. anthracis = assay: microbe, parasite or virus in culture; format: cell-based; settings: Bacillus anthracis, read-out: MIC B. anthracis
# F. tularensis = assay: microbe, parasite or virus in culture; format: cell-based; settings: Francisella tularensis, read-out: MIC F. tularensis
# B. abortus = assay: microbe, parasite or virus in culture; format: cell-based; settings: Brucella abortus, read-out: MIC B. abortus
# B. pseudomallei = assay: microbe, parasite or virus in culture; format: cell-based; settings: Burkholderia pseudomallei, read-out: MIC B. pseudomallei
compound,measurement,setting,value
"C[C@H]1COc2c(N3CCN(C)CC3)c(F)cc3c(=O)c(C(=O)O)cn1c23 [Levofloxacin, reference compound]",MIC,E. coli ATCC 25922,0.016 µg/mL
same,MIC,A. baumannii ATCC 19606,0.5 µg/mL
same,MIC,[1],1 µg/mL
same,MIC,[2],0.12 µg/mL
same,MIC,[3],64 µg/mL
same,MIC,[4],32 µg/mL
same,"Interaction with polymyxin B, P. aeruginosa GN10",[5],No interaction
"Cc1c(-c2ccc(CN)c(F)c2)ccn2c(=O)c(C(=O)O)cc(C3CC3)c12 [Compound 4, 8-(3-fluoro-4-aminomethyl-phenyl)-1-cyclopropyl-9-methyl-4-oxo-quinolizine-3-carboxylic acid]",MIC,E. faecium 19434,2 µg/mL
same,MIC,E. coli ATCC 25922,0.016 µg/mL
same,MIC,S. aureus ATCC 25923,0.064 µg/mL
"Cc1c(-c2cc(F)c(N)cc2F)ccn2c(=O)c(C(=O)O)cc(C3CC3)c12 [Compound 2, 8-(3,6-difluoro-4-amino-phenyl)-1-cyclopropyl-9-methyl-4-oxo-quinolizine-3-carboxylic acid]",MIC,E. faecalis 29212,< 0.008 µg/mL
same,MIC,[1],1 µg/mL
same,MIC,[3],32 µg/mL
same,MIC,[6],8 µg/mL
same,Synergy,[7],partial synergy
"Cc1c(-c2ccc(N)cc2)c(F)cn2c(=O)c(C(=O)O)cc(C3CC3)c12 [Compound 7, 8-(4-amino-phenyl)-1-cyclopropyl-7-fluoro-9-methyl-4-oxo-quinolizine-3-carboxylic acid]",MIC,E. faecium 19434,2 µg/mL
same,MIC,E. cloacae 13047,1 µg/mL
"Cc1c(-c2ccc(N)c(F)c2)ccn2c(=O)c(C(=O)O)cc(C3CC3)c12 [Compound 1, 8-(3-fluoro-4-amino-phenyl)-1-cyclopropyl-9-methyl-4-oxo-quinolizine-3-carboxylic acid]",MIC,B. anthracis,< 0.008 µg/mL
same,MIC,F. tularensis,< 0.03 µg/mL
same,MIC,B. abortus,0.125 µg/mL
same,MIC,B. pseudomallei,0.125 µg/mL

# Reference: patent US10155021B2, “Antimicrobial 4-oxoquinolizines” (Emergent Product Development Gaithersburg Inc., priority 2011, dated 2018)
